Assay results published in ChEMBL document CHEMBL4828719, “H2dpa derivatives containing pentadentate ligands: An acyclic adjuvant potentiates meropenem activity in vitro and in vivo against metallo-β-lactamase-producing Enterobacterales” (Eur J Med Chem, 2021).
The source made the active and inactive calls. The calls are words filed in the database; no cut-off is given here.

What was measured:
Escherichia coli [1] = test: Antibiotic adjuvant activity against meropenem-treated IMP-4 producing Escherichia coli DH5 alpha assessed as bacterial growth at 8 ug/ml incubated for 16 to 20 hrs in the presence of meropenem and 100 uM zinc sulfate by CLSI based microdilution method; assay type: functional; settings: dose 8 µg/ml; time 16-20 hrs
Escherichia coli [2] = test: Antibiotic adjuvant activity against meropenem-treated NDM-1 producing Escherichia coli DH5 alpha assessed as inhibition of bacterial growth at 8 ug/ml incubated for 16 to 20 hrs in the presence of meropenem and 100 uM zinc sulfate by CLSI based microdilution method; assay type: functional, organism-based; settings: dose 8.0 µg/ml, time 16-20 hrs
Citrobacter freundii = test: Antibacterial activity against MBL producing Citrobacter freundii isolates assessed as inhibition of bacterial growth at 64 ug/ml incubated for 16 to 20 hrs by CLSI based microdilution method; assay type: functional, organism-based; settings: dose 64.0 µg/ml, time 16-20 hrs
Escherichia coli [3] = test: Antibiotic adjuvant activity against meropenem-treated NDM-1 producing Escherichia coli DH5 alpha assessed as bacterial growth at 8 ug/ml incubated for 16 to 20 hrs in the presence of meropenem by CLSI based microdilution method; assay type: functional; settings: dose 8 µg/ml; time 16-20 hrs
[4] = Non competitive inhibition of NDM-1 (unknown origin) assessed as inhibition of substrate hydrolysis by measuring decrease in Vmax using meropenem as substrate preincubated with enzyme for 5 mins followed by substrate addition by Lineweaver-Burk plot analysis
[5] = Zinc chelation-dependent inhibition of NDM-1 (unknown origin) expressed in Escherichia coli BL21 (DE3) using meropenem as substrate preincubated with enzyme for 5 to 10 mins followed by substrate addition
Escherichia coli [6] = test: Antibiotic adjuvant activity against NDM-1 producing Escherichia coli DH5alpha assessed as potentiation of meropenem-induced antibacterial activity by measuring fold reduction in meropenem MIC at 16 ug/ml incubated for 16 to 20 hrs by checkerboard assay; assay type: functional, DH5[alpha]; settings: dose 16 µg/ml; time 16-20 hrs
Klebsiella oxytoca = test: Antibacterial activity against MBL producing Klebsiella oxytoca isolates assessed as inhibition of bacterial growth at 64 ug/ml incubated for 16 to 20 hrs by CLSI based microdilution method; assay type: functional, organism-based; settings: dose 64.0 µg/ml, time 16-20 hrs
GES1 = test: Cytotoxicity against human GES1 cells assessed as live cells by measuring green fluorescence at 32 ug/ml measured after 24 hrs by calceinAM/propidium iodide staining based fluorescence microscopy; assay type: cell-based; settings: ges1, 24 h, dose 32 µg/ml
[7] = Zinc chelation-dependent inhibition of VIM-2 (unknown origin) expressed in Escherichia coli BL21 (DE3) using nitrocefin as substrate preincubated with enzyme for 5 to 10 mins followed by substrate addition
[8] = Acute toxicity in BALB/c mouse assessed as change in WBC count at 50 mg/kg, ip administered as single dose measured after 24 hrs; assay type: organism-based; settings: in vivo
[9] = Non competitive inhibition of IMP-1 (unknown origin) assessed as inhibition of substrate hydrolysis by measuring decrease in Vmax using imipenem as substrate preincubated with enzyme for 5 mins followed by substrate addition by Lineweaver-Burk plot analysis
Escherichia coli [10] = test: Antibacterial activity against NDM-1 producing Escherichia coli DH5 alpha assessed as bacterial growth at 8 ug/ml incubated for 16 to 20 hrs by CLSI based microdilution method; assay type: functional; settings: dose 8 µg/ml; time 16-20 hrs
Escherichia coli [11] = test: Antibiotic adjuvant activity against IMP-4 producing Escherichia coli DH5alpha assessed as potentiation of meropenem-induced antibacterial activity incubated for 16 to 20 hrs by agar disc diffusion assay; assay type: functional, organism-based; settings: DH5[alpha], time 16-20 hrs
Klebsiella pneumoniae [12] = test: Antibacterial activity against NDM-producing carbapenem resistant Klebsiella pneumoniae infected in BALB/c mouse sepsis model assessed as swollen and degenerated liver cells with localized focal necrosis at 10 mg/kg, ip observed for 2 days by HE staining based assay; assay type: functional, organism-based; settings: time 2.0 day
[13] = Acute toxicity in BALB/c mouse assessed as change in urea level in serum at 50 mg/kg, ip administered as single dose measured after 24 hrs; assay type: organism-based; settings: in vivo
Enterobacter hormaechei = test: Antibacterial activity against MBL producing Enterobacter hormaechei isolates assessed as inhibition of bacterial growth at 64 ug/ml incubated for 16 to 20 hrs by CLSI based microdilution method; assay type: functional, organism-based; settings: dose 64.0 µg/ml, time 16-20 hrs
Escherichia coli [14] = test: Antibiotic adjuvant activity against VIM-1 producing Escherichia coli DH5alpha assessed as potentiation of meropenem-induced antibacterial activity incubated for 16 to 20 hrs by agar disc diffusion assay; assay type: functional, organism-based; settings: DH5[alpha], time 16-20 hrs
[15] = Acute toxicity in BALB/c mouse assessed as change in platelet count at 50 mg/kg, ip administered as single dose measured after 24 hrs; assay type: organism-based; settings: in vivo
[16] = Acute toxicity in BALB/c mouse assessed as pathological changes in spleen at 50 mg/kg, ip administered as single dose measured after 24 hrs by hematoxylin and eosin staining based assay; assay type: organism-based; settings: in vivo
Escherichia coli [17] = test: Antibiotic adjuvant activity against meropenem-treated IMP-4 producing Escherichia coli DH5 alpha assessed as inhibition of bacterial growth at 8 ug/ml incubated for 16 to 20 hrs in the presence of meropenem and 1 to 10 uM zinc sulfate by CLSI based microdilution method; assay type: functional, organism-based; settings: dose 8.0 µg/ml, time 16-20 hrs
Klebsiella pneumoniae [18] = test: Antibacterial activity against MBL producing Klebsiella pneumoniae isolates assessed as inhibition of bacterial growth at 64 ug/ml incubated for 16 to 20 hrs by CLSI based microdilution method; assay type: functional, organism-based; settings: dose 64.0 µg/ml, time 16-20 hrs
Escherichia coli [19] = test: Antibiotic adjuvant activity against meropenem-treated NDM-1 producing Escherichia coli DH5 alpha assessed as inhibition of bacterial growth at 8 ug/ml incubated for 16 to 20 hrs in the presence of meropenem and 1 to 10 uM zinc sulfate by CLSI based microdilution method; assay type: functional, organism-based; settings: dose 8.0 µg/ml, time 16-20 hrs
Escherichia coli [20] = test: Synergistic antibacterial activity against VIM-1 producing Escherichia coli DH5alpha assessed as fractional inhibitory concentration index incubated for 16 to 20 hrs in presence of meropenem by checkerboard assay; assay type: functional, DH5[alpha]; settings: time 16-20 hrs
[21] = Zinc chelation-dependent inhibition of IMP-4 (unknown origin) expressed in Escherichia coli BL21 (DE3) using imipenem as substrate preincubated with enzyme for 5 to 10 mins followed by substrate addition
[22] = Acute toxicity in BALB/c mouse assessed as pathological changes in liver at 50 mg/kg, ip administered as single dose measured after 24 hrs by hematoxylin and eosin staining based assay; assay type: organism-based; settings: in vivo
Pseudomonas aeruginosa = test: Antibacterial activity against MBL producing Pseudomonas aeruginosa isolates assessed as inhibition of bacterial growth at 64 ug/ml incubated for 16 to 20 hrs by CLSI based microdilution method; assay type: functional, organism-based; settings: dose 64.0 µg/ml, time 16-20 hrs
Escherichia coli [23] = test: Antibiotic adjuvant activity against meropenem-treated VIM-1 producing Escherichia coli DH5 alpha assessed as inhibition of bacterial growth at 8 ug/ml incubated for 16 to 20 hrs in the presence of meropenem and 1 to 10 uM zinc sulfate by CLSI based microdilution method; assay type: functional, organism-based; settings: dose 8.0 µg/ml, time 16-20 hrs
Escherichia coli [24] = test: Antibiotic adjuvant activity against meropenem-treated IMP-4 producing Escherichia coli DH5 alpha assessed as bacterial growth at 8 ug/ml incubated for 16 to 20 hrs in the presence of meropenem by CLSI based microdilution method; assay type: functional; settings: dose 8 µg/ml; time 16-20 hrs
Klebsiella pneumoniae [25] = test: Antibiotic adjuvant activity against meropenem-treated NDM-producing carbapenem resistant Klebsiella pneumoniae infected in BALB/c mouse sepsis model assessed as reduction of bacterial load in kidney at 10 mg/kg, ip in the presence of meropenem observed for 2 days; assay type: functional, organism-based; settings: time 2.0 day
Klebsiella pneumoniae [26] = test: Antibiotic adjuvant activity against meropenem-treated NDM-producing carbapenem resistant Klebsiella pneumoniae infected in BALB/c mouse sepsis model assessed as survival rate at 10 mg/kg, ip in the presence of meropenem measured after 7 days; assay type: functional; settings: 168 h, time 7 day

For `C[C@@H](C(=O)O)N(Cc1cccc(C(=O)O)n1)Cc1cccc(C(=O)O)n1`, the Activity (Escherichia coli [1]) was 100%, the Activity (Escherichia coli [2]) was “inactive” and the Activity (Citrobacter freundii) was “inactive”. The Activity (Escherichia coli [3]) was <10%, the Ki [4] was 1700 nM and the IC50 [5] was 1690 nM. For the same compound, the “fold change (FC)” value (Escherichia coli [6]) was >1000, the Activity (Klebsiella oxytoca) was “inactive” and the Activity (GES1) was “Non-Toxic”. The IC50 [7] was 1540 nM, the Activity [8] was “Non-Toxic” and the Ki [9] was 1540 nM. For the same compound, the Activity (Escherichia coli [10]) was 95%, the Activity (Escherichia coli [11]) was “Active” and the Activity (Klebsiella pneumoniae [12]) was “inactive”. The Activity [13] was “Non-Toxic”, the Activity (Enterobacter hormaechei) was “inactive” and the Activity (Escherichia coli [14]) was “Active”. For the same compound, the Activity [15] was “Non-Toxic”, the Activity [16] was “Non-Toxic” and the Activity (Escherichia coli [17]) was “Active”. The Activity (Klebsiella pneumoniae [18]) was “inactive”, the Activity (Escherichia coli [19]) was “Active” and the “fractional inhibitory concentration index (FICI)” value (Escherichia coli [20]) was 0.07. For the same compound, the IC50 [21] was 4.17 µM, the Activity [22] was “Non-Toxic” and the Activity (Pseudomonas aeruginosa) was “inactive”. For the same compound, the Activity (Escherichia coli [23]) was “Active”, the Activity (Escherichia coli [24]) was <10% and the Activity (Klebsiella pneumoniae [25]) was “Active”.

For `C[C@H](C(=O)O)N(Cc1cccc(C(=O)O)n1)Cc1cccc(C(=O)O)n1`, the Activity (Escherichia coli [1]) was 100%, the Activity (Escherichia coli [2]) was “inactive” and the Activity (Citrobacter freundii) was “inactive”. For the same compound, the Activity (Escherichia coli [3]) was <10%, the Ki [4] was 1590 nM and the IC50 [5] was 1600 nM. For the same compound, the “fold change (FC)” value (Escherichia coli [6]) was >1000, the Activity (Klebsiella oxytoca) was “inactive” and the Activity (GES1) was “Non-Toxic”. For the same compound, the IC50 [7] was 1560 nM, the Activity [8] was “Non-Toxic” and the Ki [9] was 1570 nM. For the same compound, the Activity (Escherichia coli [10]) was 95%, the Activity (Escherichia coli [11]) was “Active” and the Activity (Klebsiella pneumoniae [12]) was “inactive”. The Activity [13] was “Non-Toxic”, the Activity (Enterobacter hormaechei) was “inactive” and the Activity (Escherichia coli [14]) was “Active”. For the same compound, the Activity [15] was “Non-Toxic”, the Activity [16] was “Non-Toxic” and the Activity (Escherichia coli [17]) was “Active”. The Activity (Klebsiella pneumoniae [18]) was “inactive”, the Activity (Escherichia coli [19]) was “Active” and the “fractional inhibitory concentration index (FICI)” value (Escherichia coli [20]) was 0.07. For the same compound, the IC50 [21] was 4.4 µM, the Activity [22] was “Non-Toxic” and the survival at 10 mg/kg (Klebsiella pneumoniae [26]) was 100%. For the same compound, the Activity (Pseudomonas aeruginosa) was “inactive”, the Activity (Escherichia coli [23]) was “Active” and the Activity (Escherichia coli [24]) was <10%. The Activity (Klebsiella pneumoniae [25]) was “Active”.
